Tests used:
[1] = molecular target: T1, XIAP Bir3-RING (GST-BIR 3RING) (Homo sapiens, UniProt P98170); test: Caspase de-repression assay using cellular extracts (apoptosome), XIAP Bir3-RING; type: biochemical; conditions: 293 cell S100 extract
T1 construct: made in house; host or cells: E. coli DH5-alpha
Procedure: (§1) 100 ug of 293 cell S100 extract and 0.25 uM-2 uM of GST-Xiap fusion protein (GST-BIR 3RING, GST-linker BIR2 BIR3RING) were co-incubated with serial dilutions of compound (0.02 uM-40 uM). Extracts were activated by adding 1 mM dATP, 0.1 mM ALLN, 133 ug Cytochrome C (final concentrations), and incubating at 37° C. for 25 minutes. All reactions and dilutions used S100 buffer (50 mM Pipes pH 7.0, 50 mM KCl, 0.5 mM EGTA pH 8.0, 2 mM MgCl2 supplemented with 1/1000 dilutions of 2 mg/ml Cytochalisin B, 2, mg/ml Chymotstatin, Leupeptin, Pepstatin, Antipain, 0.1M PMSF, 1M DTT). Final reaction volume was 30 ul. Caspase-3 activity was measured by overlaying 30 ul of a 0.4 mM DEVD-AMC solution. AMC cleavage was measured in a TECAN spectrophotometer at 360 nm excitation and 444 nm emission, on a kinetic cycle of 1 hour with readings taken every 5 minutes. Caspase activity was calculated as Vo of AMC fluorescence/sec. Caspase de-repression by our compounds were compared to fully activated extract and activated extract repressed by the presence of XIAP fusion protein.
(§2) Results: Compounds were also tested in the apoptosome assay and the linker-BIR2/caspase-3 inhibition assay and found to have IC50s in the following ranges: A: >10 μM; B: <10 μM; C: <1 μM, as shown in Table 7.

GST-HIAP1(cIAP-2) BIR 3 = molecular target: T2, GST-HIAP1(cIAP-2) BIR 3 (Homo sapiens, UniProt Q13489); test: Fluorescence polarization-based competition assay, cIAP-2 Bir3; type: binding
T2 construct: made in house; host or cells: E. coli DH5-alpha
Procedure: GST-HIAP1(cIAP-2) BIR 3: HIAP1 coding sequence from amino acids 236-349, cloned into PGex4T3 via BamH1 and XhoI. The plasmid was transformed into E. coli DH5α for use in protein expression and purification.
(§3) A fluorescent peptide probe, Fmoc-Ala-Val-Pro-Phe-Tyr(t-Bu)-Leu-Pro-Gly(t-Bu)-Gly-OH was prepared using standard Fmoc chemistry on 2-chlorotrityl chloride resin (Int. J. Pept. Prot. Res. 38:555-561, 1991). Cleavage from the resin was performed using 20% acetic acid in dichloromethane (DCM), which left the side chain still blocked. The C-terminal protected carboxylic acid was coupled to 4′-(aminomethyl)fluorescein (Molecular Probes, A-1351; Eugene, Oreg.) using excess diisopropylcarbodiimide (DIC) in dimethylformamide (DMF) at room temperature and was purified by silica gel chromatography (10% methanol in DCM). The N-terminal Fmoc protecting group was removed using piperidine (20%) in DMF, and purified by silica gel chromatography (20% methanol in DCM, 0.5% HOAc). Finally, the t-butyl side chain protective groups were removed using 95% trifluoroacetic acid containing 2.5% water and 2.5% triisopropyl silane. […] Compound #174 was also used as a fluorescent probe in this assay.
(§4) For all assays, the fluorescence and fluorescence-polarization was evaluated using a Tecan Polarion instrument with the excitation filter set at 485 nm and the emission filter set at 535 nm. For each assay, the concentration of the target protein was first establish by titration of the selected protein in order to produce a linear dose-response signal when incubated alone in the presence of the fluorescent probe. Upon establishing these conditions, the compounds potency (IC50) and selectivity, was assessed in the presence of a fix defined-amount of target protein and fluorescent probe and a 10 point serial dilution of the selected compounds. For each IC50 curve, the assays were run as followed: 25 ul/well of diluted compound in 50 mM MES buffer pH 6.5 were added into a black 96 well plate then 25 ul/well of bovine serum albumin (BSA) at 0.5 mg/ml in 50 mM MES pH 6.5. Auto-fluorescence for each compound was first assessed by performing a reading of the compound/BSA solution alone. Then 25 ul of the fluorescein probe diluted into 50 mM MES containing 0.05 mg/ml BSA were added and a reading to detect quenching of fluorescein signal done. Finally 25 ul/well of the target or control protein (GST-BIRs) diluted at the appropriate concentration in 50 mM MES containing 0.05 mg/ml BSA were added and the fluorescence polarization evaluated.
(§5) For each assay the relative polarization-fluorescence units were plotted against the final concentrations of compound and the IC50 calculated using the Grad pad prism software and/or Cambridge soft. The ki value were derived from the calculated IC50 value as described above and according to the equation described in Nikolovska-Coleska, Z. (2004) Anal Biochem 332, 261-273.
(§6) Compounds exemplified in Table 6 were tested and found to have IC50s in the following ranges: A: >10 μM; B: <10 μM; C: <1 μM using the fluorescence polarization assay, as shown in Table 5. Each of the IC50s was calculated from Graph Pad.

GST-XIAP BIR3RING = molecular target: T3, GST-XIAP BIR3RING (Homo sapiens, UniProt P98170); test: Fluorescence polarization-based competition assay, XIAP Bir3-RING; type: binding
T3 construct: made in house; host or cells: E. coli DH5-alpha
Procedure: GST-XIAP BIR3RING: XIAP coding sequence amino acids 246-497 cloned into PGEX2T1 via BamH1 and AVA I. The plasmid was transformed into E. coli DH5α for use in protein expression and purification.
as §3, §4, §5, §6

GST-HIAP2 (cIAP-1) BIR 3 = molecular target: T4, GST-HIAP2 (cIAP-1) BIR 3 (Homo sapiens, UniProt Q13490); test: Fluorescence polarization-based competition assay, cIAP-1 Bir3; type: binding
T4 construct: made in house; host or cells: E. coli DH5-alpha
Procedure: GST-HIAP2 (cIAP-1) BIR 3: HIAP2 coding sequence from amino acids 251-363 cloned into PGex4T3 via BamH1 and XhoI. The plasmid was transformed into E. coli DH5α for use in protein expression and purification.
as §3, §4, §5, §6

[2] = molecular target: T5, caspase-3 inhibited by linker BIR2-BIR3-RING of XIAP (Homo sapiens, UniProt P98170); test: Caspase-3 linker-BIR2-BIR3-RING derepression assay; type: biochemical
T5 construct: made in house; host or cells: E. coli DH5-alpha (GST-XIAP); E. coli AD494 (His-caspase-3)
Procedure: In order to determine the relative activity of the selected compound against BIR2, an in vitro assay was used where caspase-3 was inhibited by linker-BIR2 or linker BIR2-BIR3-RING of XIAP. Briefly, 1.5 ul of the enzyme, 0.25 uM to 2 uM of GST-Xiap fusion protein (GST-linker BIR2, GST-linker BIR2BIR3RING) were co-incubated with serial dilutions of compound (80 uM-0.04 uM). Caspase 3 activity was measured by overlaying 25 ul of a 0.4 mM DEVD-AMC solution. Final reaction volume was 100 ul. All dilutions were performed in caspase buffer (50 mM Hepes pH 7.4, 100 mM NaCl, 10% sucrose, 1 mM EDTA, 10 mM DTT, 0.1% CHAPS (Stennicke, H. R., and Salvesen, G. S. (1997). Biochemical characteristics of caspase-3, -6, -7, and -8. J. Biol. Chem. 272, 25719-25723)).
The fluorescent AMC released from the caspase-3 hydrolysis of the substrate was measured in a TECAN spectrophotometer at 360 nm excitation and 444 nm emission, on a kinetic cycle of 30 minutes with readings taken every 2 minutes. Caspase activity was calculated as Vo of AMC fluorescence/sec. Caspase de-repression by our compounds were compared to caspase-3 alone and caspase 3 repressed by the presence of XIAP fusion protein.
as §2

[3] = molecular target: T6, XIAP Bir2-Bir3-RING (GST-linker BIR2 BIR3RING) (Homo sapiens, UniProt P98170); test: Caspase de-repression assay using cellular extracts (apoptosome), XIAP Bir2-Bir3-RING; type: biochemical; conditions: 293 cell S100 extract
T6 construct: made in house; host or cells: E. coli DH5-alpha
Procedure: as §1, §2

T2 sequence (Q13489 236-349): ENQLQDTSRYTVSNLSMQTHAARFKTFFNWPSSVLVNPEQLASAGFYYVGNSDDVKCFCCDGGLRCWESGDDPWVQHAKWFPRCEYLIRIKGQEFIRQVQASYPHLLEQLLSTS
T1 sequence (P98170 246-497): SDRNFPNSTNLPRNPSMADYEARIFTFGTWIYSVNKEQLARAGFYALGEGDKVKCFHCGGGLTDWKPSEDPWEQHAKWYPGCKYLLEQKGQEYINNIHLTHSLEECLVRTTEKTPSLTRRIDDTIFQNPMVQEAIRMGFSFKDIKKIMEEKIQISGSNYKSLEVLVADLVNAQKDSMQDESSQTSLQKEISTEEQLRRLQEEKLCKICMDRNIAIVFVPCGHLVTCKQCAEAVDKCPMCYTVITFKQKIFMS
T3 sequence (P98170 246-497): as above
T4 sequence (Q13490 251-363): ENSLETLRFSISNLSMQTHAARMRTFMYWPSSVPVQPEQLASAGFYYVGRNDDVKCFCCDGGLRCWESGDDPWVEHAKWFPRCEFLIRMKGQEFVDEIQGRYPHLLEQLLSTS
T6 sequence (P98170 93-497): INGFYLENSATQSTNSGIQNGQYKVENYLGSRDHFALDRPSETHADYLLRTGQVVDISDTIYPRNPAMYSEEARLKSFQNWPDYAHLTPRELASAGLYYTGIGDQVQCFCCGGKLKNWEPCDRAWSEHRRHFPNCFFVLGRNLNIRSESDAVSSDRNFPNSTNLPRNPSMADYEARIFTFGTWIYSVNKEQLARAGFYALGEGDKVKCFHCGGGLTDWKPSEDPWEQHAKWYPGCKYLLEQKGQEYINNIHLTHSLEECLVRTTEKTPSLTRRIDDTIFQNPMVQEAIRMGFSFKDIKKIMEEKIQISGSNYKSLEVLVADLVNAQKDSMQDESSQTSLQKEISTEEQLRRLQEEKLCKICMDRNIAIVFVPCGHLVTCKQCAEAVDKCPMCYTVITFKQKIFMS
T5 sequence (P98170 93-497): as above

Row | Structure (SMILES) | IC50 [1] [µM] | IC50 (GST-HIAP1(cIAP-2) BIR 3) [µM] | IC50 (GST-XIAP BIR3RING) [µM] | IC50 (GST-HIAP2 (cIAP-1) BIR 3) [µM] | IC50 [2] [µM] | IC50 [3] [µM]
1 | CC(C)[C@H](NC(=O)[C@H](C)N)C(=O)N1CCC[C@H]1CN(CCc1ccccc1)C(=O)C(F)(F)F [Compound 20] | < 1 | < 1 | < 1 | < 1 | > 10 | > 10
2 | CC[C@H](N)C(=O)N[C@H](C(=O)N1CCC[C@H]1CN(C(=O)C(F)(F)F)[C@H](C)c1ccccc1)C(C)C [Compound 13] | < 10 | > 10 | < 10 | < 10 | > 10 | > 10
3 | CC(C)[C@H](NC(=O)[C@H](C)N)C(=O)N1CCC[C@H]1CNCCc1ccccc1 [Compound 18] | < 1 | < 1 | < 1 | < 1 | > 10 | > 10
4 | CC(=O)N(CCc1ccccc1)C[C@@H]1CCCN1C(=O)[C@@H](NC(=O)[C@H](C)N)C(C)C [Compound 19] | < 1 | < 1 | < 1 | < 1 | > 10 | > 10
5 | CC(C)[C@H](NC(=O)[C@H](C)N)C(=O)N1CCC[C@H]1CN(CCc1ccccc1)S(C)(=O)=O [Compound 17] | < 1 | < 1 | < 10 | < 1 | > 10 | > 10
6 | CC[C@H](N)C(=O)N[C@H](C(=O)N1CCC[C@H]1CN(Cc1ccccc1)C(=O)C(F)(F)F)C(C)C [Compound 12] | < 1 | > 10 | < 10 | > 10 | > 10 | > 10
7 | CC(C)[C@H](NC(=O)[C@H](C)N)C(=O)N1CCC[C@H]1CN(C(=O)C(F)(F)F)[C@H]1CCCc2ccccc21 [Compound 4] | > 10 | < 10 | < 10 | < 10 | > 10 | > 10
8 | CC[C@H](N)C(=O)N[C@H](C(=O)N1CCC[C@H]1CN(C(C)=O)[C@@H]1CCCc2ccccc21)C(C)C [Compound 9] | < 1 | > 10 | < 10 | > 10 | > 10 | > 10
9 | CC(C)[C@H](NC(=O)[C@H](C)N)C(=O)N1CCC[C@H]1CN(C(=O)C(F)(F)F)[C@@H]1CCCc2ccccc21 [Compound 3] | < 1 | < 10 | < 10 | < 10 | < 10 | > 10
10 | CC(C)[C@H](NC(=O)[C@H](C)N)C(=O)N1CCC[C@H]1CN(CCCCO)CCc1ccccc1 [Compound 29] | < 1 | < 1 | < 10 | < 1 | > 10 | < 10
11 | CC(=O)N(Cc1ccccn1)C[C@@H]1CCCN1C(=O)[C@@H](NC(=O)[C@H](C)N)C(C)C [Compound 8] | < 1 | < 10 | > 10 | < 10 | > 10 | > 10

Continued, values first:

Row | IC50 [1] [µM] | IC50 (GST-HIAP1(cIAP-2) BIR 3) [µM] | IC50 (GST-XIAP BIR3RING) [µM] | IC50 (GST-HIAP2 (cIAP-1) BIR 3) [µM] | IC50 [2] [µM] | IC50 [3] [µM] | Structure (SMILES)
12 | < 1 | < 1 | < 1 | < 1 | > 10 | > 10 | CC(C)[C@H](NC(=O)[C@H](C)N)C(=O)N1CCC[C@H]1CN(CCc1ccccc1)C(=O)CCc1ccccc1 [Compound 21]
13 | < 1 | < 1 | < 1 | < 1 | > 10 | > 10 | CC(C)[C@H](NC(=O)[C@H](C)N)C(=O)N1CCC[C@H]1CN(CCc1ccccc1)C(=O)CCCc1ccccc1 [Compound 31]
14 | < 1 | < 1 | < 1 | < 1 | > 10 | < 10 | CN[C@@H](C)C(=O)N[C@H](C(=O)N1CCC[C@H]1CN(CCc1ccccc1)C(=O)CCc1ccccc1)C(C)(C)C [Compound 27]
15 | < 10 | < 1 | < 1 | < 1 | > 10 | > 10 | CC(C)[C@H](NC(=O)[C@H](C)N)C(=O)N1CCC[C@H]1CN(CCc1ccccc1)C(=O)OCc1ccccc1 [Compound 15]
16 | < 1 | < 1 | < 1 | < 1 | > 10 | > 10 | CC(C)[C@H](NC(=O)[C@H](C)N)C(=O)N1CCC[C@H]1CN(CCc1ccccc1)C(=O)CN [Compound 30]
